Columns and labels:
[1] = molecular target: T1, IDH (endogenous IDH1 R132C) in HT1080 cell (Homo sapiens, UniProt O75874, R132C); test: Cell-based assay for IDH inhibition (decrease of D-2-HG) in HT1080 cells; settings: human fibrosarcoma cell line HT1080, 16 hours treatment, D-2-HG by LC-MS, in triplet
T1 construct: which harbor endogenous heterozygous IDH1 R132C and R132H mutation respectively and accumulate D-2-HG
From the text: The present disclosure also provides a cell-based method for assaying IDH inhibition and selectivity of the compounds in human fibrosarcoma cell line HT1080 and cholangiocarcinoma cell line HCCC 9810, which harbor endogenous heterozygous IDH1 R132C and R132H mutation respectively and accumulate D-2-HG. Tumor -derived IDH mutant lost its normal activity of producing α-KG, and gained a new activity of producing D-2-HG. D-2-HG is a metabolite specifically elevated in tumor cells expressing mutant IDH1 or IDH2 proteins. When treating such mutant IDH-expressing tumor cells with an effective IDH inhibitor, the synthesis of D-2-HG is blocked, and D-2-HG concentration is decreased by the oxidation reaction catalyzed by the endogenous D-2-HG dehydrogenase.
To perform a cell-based IDH inhibition assay, HT1080 and HCCC 9810 cells (or other cell lines harboring different IDH mutations) are cultured in DMEM supplemented with 10% FBS. The cells are treated with compounds of present disclosure at various different concentrations. 16 hours after the treatment, culture medium supernatants are removed and cell metabolites are extracted by 40% methanol and 40% acetonitrile in water (pre-chilled under −80° C.) at 4° C. for 1 hour. The extract supernatants are collected and cell debris are removed via high speed centrifugation. The resulting metabolite extracts are analyzed on an Agilent LC-MS system (model: 1290-6470) for 2-HG and glutamate concentration. A HILIC-Z column (2.1 mm×100 mm, […]) is employed on HPLC. Mobile phase A is 15 mM CH3COONH4 and 0.3% NH3·H2O in water. Mobile phase B is 15 mM CH3COONH4 and 0.3% NH3·H2O in 90% MeCN/10% H2O solvent. An 19% solvent A and 81% solvent B isocratic gradient method is used at a flow rate of 0.3 ml/min. D-2-HG is ionized under negative ion spray mode and detected through the multiple-reaction monitoring of a mass transition pair at m/z=147.0/128.9 and 147.0/85.1. Glutamate is ionized under ion spray mode and detected on negative polarity multiple-reaction monitoring of a mass transition pair at m/z=146/102 and 146/128 and its level is used to normalize 2-HG concentration. The activity of cellular mutant IDH proteins in the presence of each test compound at different concentrations can be represented by relative D-2-HG concentration to negative control samples (i.e., cells are treated with DMSO only), and the IC50 value could be determined to evaluate the inhibition and selectivity of each test compound on the IDH enzymatic activity.
The IDH inhibition activity of the compounds were assessed in human fibrosarcoma cell line HIT1080 according to Test 3 of the Biological Assay section. The test for IDH inhibition of each compound was carried out in triplet. As used in Table 6, “A” refers to an IDH inhibitory activity with an IC50<0.1 μM; “B” refers to an IDH inhibitory activity with an IC50 from 0.1 μM to 0.5 μM; “C” refers to an IDH inhibitory activity with an IC50 from 0.5 μM to 1 μM; “D” refers to an IDH inhibitory activity with an IC50>1 μM.

[2] = molecular target: T2, IDH1 R132C (Homo sapiens, UniProt O75874, R132C); test: Biochemical assay for IDH inhibition (NADPH fluorescence), mutant IDH1 R132C; settings: 25 nM IDH1-R132C, 1 hour pre-incubation, in triplet
T2 construct: 6xHis
T2 sequence (O75874 whole entry R132C): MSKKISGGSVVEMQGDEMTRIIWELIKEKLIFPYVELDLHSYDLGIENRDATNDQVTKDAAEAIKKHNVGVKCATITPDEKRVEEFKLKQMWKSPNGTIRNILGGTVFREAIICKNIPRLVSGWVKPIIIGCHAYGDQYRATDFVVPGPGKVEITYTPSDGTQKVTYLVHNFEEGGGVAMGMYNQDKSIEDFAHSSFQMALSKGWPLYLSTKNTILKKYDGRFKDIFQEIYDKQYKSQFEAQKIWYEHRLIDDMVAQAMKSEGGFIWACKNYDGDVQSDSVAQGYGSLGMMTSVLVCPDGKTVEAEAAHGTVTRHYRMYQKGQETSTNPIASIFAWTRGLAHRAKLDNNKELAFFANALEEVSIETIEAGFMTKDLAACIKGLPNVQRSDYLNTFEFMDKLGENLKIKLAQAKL
From the text: (§1) The present disclosure provides a biochemical assay method for detecting the IDH inhibition and selectivity of the compounds by detecting IDH enzyme activity directly.
(§2) Wild-type IDH enzymes convert NADP^+ to NADPH when catalyzing the α-KG producing reaction. Mutant IDH enzymes convert NADPH to NADP^+ when catalyzing the D-2-HG producing reaction. So, the activity of wild-type and mutant IDH1/2 could be measured by monitoring NADPH level change as NADPH is fluorescent (Excitation 340 nm, Emission 460 nm). By monitoring the change of NADPH level in the reaction, the enzyme activity could be determined rapidly and efficiently and IC50 of a compound could also be assayed.
(§3) The test compounds are prepared into 50 mM stock solutions in DMSO and stored at −20° C. Each test compound stock is further diluted to obtain a 100× stock solution at a concentration of 400 μM, 200 μM, 100 μM, 50 μM, 25 μM, 12.5 μM, 6.25 μM and 3.125 μM, respectively, for the final use on the day of test (the concentration range of 100× stock solutions might be adjusted to cover the estimated IC50 of a specific test compound).
(§4) Inhibition of Mutant IDH1 (R132H or R132C):
(§5) To assay the enzymatic activity of mutant IDH1 proteins, 25 nM IDH1-R132C or 50 nM IDH1-R132H protein solutions are prepared in 20 mM Tris-HCl pH7.5, 150 mM NaCl, 10 mM MgCl2, 1 mM DTT, 0.05 mg/ml BSA and 1.33 mM α-KG. 148 μL 25 nM IDH1-R132C or 50 nM IDH1-R132H protein solutions are mixed with 2 μL DMSO (vehicle control for test compounds) or an above-mentioned 100× stock solution of a test compound and incubated for 1 hour at room temperature. Extra reactions containing 148 μL no-enzyme solution (20 mM Tris-HCl pH7.5, 150 mM NaCl, 10 mM MgCl2, 1 mM DTT, 0.05 mg/ml BSA and 1.33 mM α-KG) and 2 μL DMSO are also set up as background controls. Then each reaction is initiated by adding 50 μL 80 μM NADPH solution prepared in 20 mM Tris-HCl pH7.5, 150 mM NaCl, 10 mM MgCl2, 1 mM DTT and 0.05 mg/ml BSA. BioTek Synergy H1 Microplate reader (BioTek Instruments Inc., Winooski, U.S.) is employed to monitor the NADPH fluorescence (Excitation 340 nm, Emission 460 nm) every 42 seconds for 15 minutes. NADPH change rate is determined according to the linear phase of the fluorescence-time curve and results from the background control reactions are used as background subtraction to calculate the net NADPH change rates of other reactions. The net NADPH change rates from the vehicle control reactions are used as 100% enzymatic activity and thus the relative enzymatic activity of reactions with test compounds added could be determined. Then a dose-response curve is drawn for each test compound and the corresponding IC50 is calculated. The IC50 value is used to evaluate the inhibition and selectivity of each test compound on the IDH enzymatic activity.
(§6) The IDH inhibition activity of the compounds were assessed according to Test 2 of the Biological Assay section. The test for mutant IDH1 R132H and IDH1 R132C inhibition of each compound was carried out in triplet. As used in Table 5, “A” refers to an inhibitory activity against IDH1 R132H or IDH1 R132C with an IC50<0.1 μM; “B” refers to an inhibitory activity against IDH1 R132H or IDH1 R132C with an IC50 from 0.1 μM to 0.5 μM; “C” refers to an inhibitory activity against IDH1 R132H or IDH1 R132C with an IC50 from 0.5 μM to 1 μM; “D” refers to an inhibitory activity against IDH1 R132H or IDH1 R132C with an IC50>1 μM.

[3] = molecular target: T3, IDH1 R132H (Homo sapiens, UniProt O75874, R132H); test: Biochemical assay for IDH inhibition (NADPH fluorescence), mutant IDH1 R132H; settings: 50 nM IDH1-R132H, 1 hour pre-incubation, in triplet
T3 construct: 6xHis
T3 sequence (O75874 whole entry R132H): as the sequence (O75874 whole entry R132C) above, with C132H counted along it
From the text: as §1, §2, §3, §4, §5, §6

T1 sequence (O75874 2-414 R132C): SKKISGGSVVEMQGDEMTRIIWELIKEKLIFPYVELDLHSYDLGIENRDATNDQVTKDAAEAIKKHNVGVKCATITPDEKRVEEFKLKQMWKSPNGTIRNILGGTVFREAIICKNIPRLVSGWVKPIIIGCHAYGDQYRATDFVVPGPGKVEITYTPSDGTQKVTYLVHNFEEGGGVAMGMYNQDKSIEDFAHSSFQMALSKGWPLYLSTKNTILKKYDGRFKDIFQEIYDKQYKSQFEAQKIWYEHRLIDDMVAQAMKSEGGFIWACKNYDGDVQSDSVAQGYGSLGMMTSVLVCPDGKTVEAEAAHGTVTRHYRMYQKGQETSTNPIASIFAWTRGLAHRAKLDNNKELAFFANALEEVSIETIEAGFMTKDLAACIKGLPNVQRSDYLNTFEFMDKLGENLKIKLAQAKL

Structure (SMILES)	IC50 [1] [nM]	IC50 [2] [nM]	IC50 [3] [nM]
C[C@H](Nc1nccc2c1CN(CC(F)CF)C2=O)c1ccc(-c2ccnc(C(C)(C)C)c2)c(F)c1 (stereo partly drawn) [Compound 39, 4-(((S)-1-(4-(2-(tert-butyl)pyridin-4-yl)-3-fluorophenyl)ethyl)amino)-2-(2,3-difluoropropyl)-2,3-dihydro-1H-pyrrolo[3,4-c]pyridin-1-one]	> 1000	> 1000	100 to 500
CCN1Cc2c(ccnc2N[C@H](C)c2ccc(Oc3ccccc3)c(F)c2)C1=O [Compound 12, (R)-2-ethyl-4-((1-(3-fluoro-4-phenoxyphenyl)ethyl)amino)-2,3-dihydro-1H-pyrrolo[3,4-c]pyridin-1-one]	> 1000	> 1000	> 1000
CCN1Cc2c(ccnc2N[C@@H](C)c2ccc(-c3ccccc3)c(F)c2)C1=O [Compound 80, (S)-2-ethyl-4-((1-(2-fluoro-[1,1′-biphenyl]-4-yl)ethyl)amino)-2,3-dihydro-1H-pyrrolo[3,4-c]pyridin-1-one]	> 1000	> 1000	> 1000
CCN1Cc2c(ccnc2N[C@@H](C)c2ccc(-c3ccc4c(ccn4C)c3)c(F)c2)C1=O [Compound 72, (S)-2-ethyl-4-((1-(3-fluoro-4-(1-methyl-1H-indol-5-yl)phenyl)ethyl)amino)-2,3-dihydro-1H-pyrrolo[3,4-c]pyridin-1-one]	> 1000	500 to 1000	100 to 500
CCN1Cc2c(ccnc2N[C@@H](C)c2cn(-c3ccnc(C(C)(C)C)c3)cn2)C1=O [Compound 56, (S)-4-((1-(1-(2-(tert-butyl)pyridin-4-yl)-1H-imidazol-4-yl)ethyl)amino)-2-ethyl-2,3-dihydro-1H-pyrrolo[3,4-c]pyridin-1-one]	> 1000	> 1000	> 1000

Continued, values first:

IC50 [1] [nM]	IC50 [2] [nM]	IC50 [3] [nM]	Structure (SMILES)
100 to 500	500 to 1000	100 to 500	CCN1Cc2c(ccnc2N[C@@H](C)c2cc(F)c(-c3ccnc(-c4cncc(Cl)c4)c3)cc2F)C1=O [Compound 100, (S)-4-((1-(4-(5′-chloro-[2,3′-bipyridin]-4-yl)-2,5-difluorophenyl)ethyl)amino)-2-ethyl-2,3-dihydro-1H-pyrrolo[3,4-c]pyridin-1-one]
100 to 500	100 to 500	< 100	CCN1Cc2c(ccnc2N[C@@H](C)c2cc(F)c(-c3cc(C(F)(F)F)ncc3OC)cc2F)C1=O [Compound 143, (S)-4-((1-(2,5-difluoro-4-(5-methoxy-2-(trifluoromethyl)pyridin-4-yl)phenyl)ethyl)amino)-2-ethyl-2,3-dihydro-1H-pyrrolo[3,4-c]pyridin-1-one]
< 100	< 100	< 100	CCN1Cc2c(ccnc2N[C@@H](C)c2cc(F)c(-c3ccnc(C(C)(C)C)c3)cc2F)C1=O [Compound 87, (S)-4-((1-(4-(2-(tert-butyl)pyridin-4-yl)-2,5-difluorophenyl)ethyl)amino)-2-ethyl-2,3-dihydro-1H-pyrrolo[3,4-c]pyridin-1-one]
500 to 1000	> 1000	100 to 500	CCN1Cc2c(ccnc2N[C@@H](C)c2cc(F)c(-c3ccnc(C4CC4)c3)cc2F)C1=O [Compound 90, (S)-4-((1-(4-(2-cyclopropylpyridin-4-yl)-2,5-difluorophenyl)ethyl)amino)-2-ethyl-2,3-dihydro-1H-pyrrolo[3,4-c]pyridin-1-one]
< 100	< 100	< 100	CCN1Cc2c(ccnc2N[C@@H](C)c2cc(F)c(OC3CC(C)CC(C)(C)C3)cc2F)C1=O (stereo partly drawn) [Compound 22, 4-(((1S)-1-(2,5-difluoro-4-((3,3,5-trimethylcyclohexyl)oxy)phenyl)ethyl)amino)-2-ethyl-2,3-dihydro-1H-pyrrolo[3,4-c]pyridin-1-one]
< 100	< 100	< 100	CCN1Cc2c(ccnc2N[C@@H](C)c2cc(F)c(-c3cc(C(C)(C)F)c(Cl)cn3)cc2F)C1=O [Compound 136, (S)-4-((1-(4-(5-chloro-4-(2-fluoropropan-2-yl)pyridin-2-yl)-2,5-difluorophenyl)ethyl)amino)-2-ethyl-2,3-dihydro-1H-pyrrolo[3,4-c]pyridin-1-one]

From US12441725B2, “ISO-citrate dehydrogenase (IDH) inhibitor” (ZHEJIANG METON PHARMACEUTICAL CO., LTD, priority 2019, dated 2025)
